# Measurements from PubChem BioAssay (NCI).
#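 GI50: concentration for 50% inhibition of growth. TGI denotes the concentration required for complete inhibition of growth.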
# How the values were obtained:
# Assay in all cases: inhibition of tumour cell growth, NCI panel, 384-well format
# CAKI-1 renal = tested on: CAKI-1 renal
# SK-MEL-5 melanoma = tested on: SK-MEL-5 melanoma
# HL-60(TB) leukemia = tested on: HL-60(TB) leukemia
# SK-OV-3 ovarian = tested on: SK-OV-3 ovarian
# OVCAR-8 ovarian = tested on: OVCAR-8 ovarian
# BT-549 breast = tested on: BT-549 breast
# LOX IMVI melanoma = tested on: LOX IMVI melanoma
# U251 glioblastoma = tested on: U251 glioblastoma
# HOP-62 NSCLC = tested on: HOP-62 NSCLC
# SK-MEL-28 melanoma = tested on: SK-MEL-28 melanoma
# NCI-H322M lung = tested on: NCI-H322M lung
# MDA-MB-231 breast = tested on: MDA-MB-231 breast
# NCI-H226 lung = tested on: NCI-H226 lung
# IGROV1 ovarian = tested on: IGROV1 ovarian
# A549 NSCLC = tested on: A549 NSCLC
# SN12C renal = tested on: SN12C renal
# SNB-75 CNS = tested on: SNB-75 CNS
# RXF 393 renal = tested on: RXF 393 renal
# 786-0 renal = tested on: 786-0 renal
# MALME-3M melanoma = tested on: MALME-3M melanoma
# NCI-H23 lung = tested on: NCI-H23 lung
# OVCAR-3 ovarian = tested on: OVCAR-3 ovarian
# RPMI-8226 leukemia = tested on: RPMI-8226 leukemia
# NCI-H460 NSCLC = tested on: NCI-H460 NSCLC
# KM12 colon = tested on: KM12 colon
# SF-295 CNS = tested on: SF-295 CNS
# SNB-19 CNS = tested on: SNB-19 CNS
# A498 renal = tested on: A498 renal
# COLO 205 colon = tested on: COLO 205 colon
# OVCAR-4 ovarian = tested on: OVCAR-4 ovarian
# DU-145 prostate = tested on: DU-145 prostate
# HOP-92 NSCLC = tested on: HOP-92 NSCLC
# ACHN renal = tested on: ACHN renal
# MDA-MB-435 melanoma = tested on: MDA-MB-435 melanoma
# MOLT-4 leukemia = tested on: MOLT-4 leukemia
# SF-539 CNS = tested on: SF-539 CNS
# TK-10 renal = tested on: TK-10 renal
# SW-620 colon = tested on: SW-620 colon
# CCRF-CEM leukemia = tested on: CCRF-CEM leukemia
# UO-31 renal = tested on: UO-31 renal
# M14 melanoma = tested on: M14 melanoma
# SR leukemia = tested on: SR leukemia
# HT29 colon = tested on: HT29 colon
# HCT-116 colon = tested on: HCT-116 colon
# MDA-MB-468 breast = tested on: MDA-MB-468 breast
# MCF7 breast = tested on: MCF7 breast
# NCI-H522 lung = tested on: NCI-H522 lung
# PC-3 prostate = tested on: PC-3 prostate
# SF-268 CNS = tested on: SF-268 CNS
# K-562 leukemia = tested on: K-562 leukemia
# UACC-62 melanoma = tested on: UACC-62 melanoma
# HS 578T breast = tested on: HS 578T breast
# T-47D breast = tested on: T-47D breast
# NCI/ADR-RES ovarian = tested on: NCI/ADR-RES ovarian
# EKVX NSCLC = tested on: EKVX NSCLC
# UACC-257 melanoma = tested on: UACC-257 melanoma
# OVCAR-5 ovarian = tested on: OVCAR-5 ovarian
# HCC-2998 colon = tested on: HCC-2998 colon
smiles,measurement,setting,value
CN[C@H]1CN(c2ccc3c(=O)c(C(=O)O)cn(-c4nccs4)c3n2)C[C@@H]1OC,GI50,CAKI-1 renal,0.752 µM
same,TGI,CAKI-1 renal,6.44 µM
same,GI50,SK-MEL-5 melanoma,1.15 µM
same,TGI,SK-MEL-5 melanoma,2.54 µM
same,GI50,HL-60(TB) leukemia,0.0776 µM
same,TGI,HL-60(TB) leukemia,0.238 µM
same,GI50,SK-OV-3 ovarian,1.8 µM
same,TGI,SK-OV-3 ovarian,26.3 µM
same,GI50,OVCAR-8 ovarian,0.637 µM
same,TGI,OVCAR-8 ovarian,> 100 µM
same,GI50,BT-549 breast,0.585 µM
same,TGI,BT-549 breast,6.87 µM
same,GI50,LOX IMVI melanoma,0.776 µM
same,TGI,LOX IMVI melanoma,2.12 µM
same,GI50,U251 glioblastoma,0.675 µM
same,TGI,U251 glioblastoma,2.56 µM
same,GI50,HOP-62 NSCLC,0.479 µM
same,TGI,HOP-62 NSCLC,2.2 µM
same,GI50,SK-MEL-28 melanoma,1.13 µM
same,TGI,SK-MEL-28 melanoma,2.93 µM
same,GI50,NCI-H322M lung,3.52 µM
same,TGI,NCI-H322M lung,39.7 µM
same,GI50,MDA-MB-231 breast,1.41 µM
same,TGI,MDA-MB-231 breast,11.4 µM
same,GI50,NCI-H226 lung,1.23 µM
same,TGI,NCI-H226 lung,3.6 µM
same,GI50,IGROV1 ovarian,1.8 µM
same,TGI,IGROV1 ovarian,> 100 µM
same,GI50,A549 NSCLC,0.686 µM
same,TGI,A549 NSCLC,> 100 µM
same,GI50,SN12C renal,0.403 µM
same,TGI,SN12C renal,2.77 µM
same,GI50,SNB-75 CNS,0.855 µM
same,TGI,SNB-75 CNS,2.47 µM
same,GI50,RXF 393 renal,0.86 µM
same,TGI,RXF 393 renal,5.37 µM
same,GI50,786-0 renal,0.434 µM
same,TGI,786-0 renal,4.59 µM
same,GI50,MALME-3M melanoma,1.06 µM
same,TGI,MALME-3M melanoma,2.7 µM
same,GI50,NCI-H23 lung,0.551 µM
same,TGI,NCI-H23 lung,2.57 µM
same,GI50,OVCAR-3 ovarian,1.32 µM
same,TGI,OVCAR-3 ovarian,6.19 µM
same,GI50,RPMI-8226 leukemia,0.0605 µM
same,TGI,RPMI-8226 leukemia,1.18 µM
same,GI50,NCI-H460 NSCLC,0.206 µM
same,TGI,NCI-H460 NSCLC,1.35 µM
same,GI50,KM12 colon,0.654 µM
same,TGI,KM12 colon,10.7 µM
same,GI50,SF-295 CNS,0.426 µM
same,TGI,SF-295 CNS,2.63 µM
same,GI50,SNB-19 CNS,0.559 µM
same,TGI,SNB-19 CNS,2.93 µM
same,GI50,A498 renal,0.781 µM
same,TGI,A498 renal,3.83 µM
same,GI50,COLO 205 colon,0.394 µM
same,TGI,COLO 205 colon,> 100 µM
same,GI50,OVCAR-4 ovarian,4.36 µM
same,TGI,OVCAR-4 ovarian,> 100 µM
same,GI50,DU-145 prostate,1.49 µM
same,TGI,DU-145 prostate,7.07 µM
same,GI50,HOP-92 NSCLC,1.61 µM
same,TGI,HOP-92 NSCLC,8.56 µM
same,GI50,ACHN renal,0.458 µM
same,TGI,ACHN renal,2.44 µM
same,GI50,MDA-MB-435 melanoma,3.5 µM
same,TGI,MDA-MB-435 melanoma,> 100 µM
same,GI50,MOLT-4 leukemia,0.0305 µM
same,TGI,MOLT-4 leukemia,0.12 µM
same,GI50,SF-539 CNS,0.85 µM
same,TGI,SF-539 CNS,> 100 µM
same,GI50,TK-10 renal,1.79 µM
same,TGI,TK-10 renal,12.1 µM
same,GI50,SW-620 colon,0.823 µM
same,TGI,SW-620 colon,7.71 µM
same,GI50,CCRF-CEM leukemia,0.0586 µM
same,TGI,CCRF-CEM leukemia,0.276 µM
same,GI50,UO-31 renal,1.47 µM
same,TGI,UO-31 renal,8.66 µM
same,GI50,M14 melanoma,0.674 µM
same,TGI,M14 melanoma,3.02 µM
same,GI50,SR leukemia,0.0189 µM
same,TGI,SR leukemia,0.0443 µM
same,GI50,HT29 colon,1.28 µM
same,TGI,HT29 colon,3.88 µM
same,GI50,HCT-116 colon,0.371 µM
same,TGI,HCT-116 colon,3.76 µM
same,GI50,MDA-MB-468 breast,0.787 µM
same,TGI,MDA-MB-468 breast,2.57 µM
same,GI50,MCF7 breast,0.602 µM
same,TGI,MCF7 breast,> 100 µM
same,GI50,NCI-H522 lung,1.21 µM
same,TGI,NCI-H522 lung,5.61 µM
same,GI50,PC-3 prostate,2.41 µM
same,TGI,PC-3 prostate,15.4 µM
same,GI50,SF-268 CNS,0.421 µM
same,TGI,SF-268 CNS,6.03 µM
same,GI50,K-562 leukemia,0.616 µM
same,TGI,K-562 leukemia,6.05 µM
same,GI50,UACC-62 melanoma,0.427 µM
same,TGI,UACC-62 melanoma,1.89 µM
same,GI50,HS 578T breast,0.64 µM
same,TGI,HS 578T breast,5.24 µM
CCOC(=O)C1=CCCC[C@H]1S(=O)(=O)Nc1ccc(F)cc1Cl,GI50,HL-60(TB) leukemia,10.6 µM
same,TGI,HL-60(TB) leukemia,22.7 µM
same,GI50,SK-OV-3 ovarian,22.3 µM
same,TGI,SK-OV-3 ovarian,65.5 µM
same,GI50,OVCAR-8 ovarian,15.6 µM
same,TGI,OVCAR-8 ovarian,38.6 µM
same,GI50,U251 glioblastoma,18.1 µM
same,TGI,U251 glioblastoma,41 µM
same,GI50,HOP-62 NSCLC,19.4 µM
same,TGI,HOP-62 NSCLC,73.7 µM
same,GI50,SK-MEL-28 melanoma,> 100 µM
same,TGI,SK-MEL-28 melanoma,> 100 µM
same,GI50,NCI-H322M lung,20.1 µM
same,TGI,NCI-H322M lung,51.1 µM
same,GI50,MDA-MB-231 breast,27.3 µM
same,TGI,MDA-MB-231 breast,> 100 µM
same,GI50,NCI-H226 lung,18.8 µM
same,TGI,NCI-H226 lung,52.3 µM
same,GI50,IGROV1 ovarian,29.8 µM
same,TGI,IGROV1 ovarian,> 100 µM
same,GI50,A549 NSCLC,32.1 µM
same,TGI,A549 NSCLC,> 100 µM
same,GI50,SN12C renal,18.4 µM
same,TGI,SN12C renal,48.4 µM
same,GI50,SNB-75 CNS,20.4 µM
same,TGI,SNB-75 CNS,55.3 µM
same,GI50,T-47D breast,11.4 µM
same,TGI,T-47D breast,24.1 µM
same,GI50,NCI/ADR-RES ovarian,18.6 µM
same,TGI,NCI/ADR-RES ovarian,39.4 µM
same,GI50,MALME-3M melanoma,21.7 µM
same,TGI,MALME-3M melanoma,57.6 µM
same,GI50,KM12 colon,21 µM
same,TGI,KM12 colon,48.4 µM
same,GI50,SF-295 CNS,19.2 µM
same,TGI,SF-295 CNS,52.5 µM
same,GI50,SNB-19 CNS,23.6 µM
same,TGI,SNB-19 CNS,79.9 µM
same,GI50,A498 renal,19.5 µM
same,TGI,A498 renal,49.6 µM
same,GI50,EKVX NSCLC,19.4 µM
same,TGI,EKVX NSCLC,44.3 µM
same,GI50,COLO 205 colon,28.4 µM
same,TGI,COLO 205 colon,62.8 µM
same,GI50,HOP-92 NSCLC,16.9 µM
same,TGI,HOP-92 NSCLC,39.8 µM
same,GI50,UACC-257 melanoma,17.5 µM
same,TGI,UACC-257 melanoma,84.9 µM
same,GI50,ACHN renal,27.9 µM
same,TGI,ACHN renal,85.2 µM
same,GI50,MDA-MB-435 melanoma,31 µM
same,TGI,MDA-MB-435 melanoma,> 100 µM
same,GI50,TK-10 renal,22 µM
same,TGI,TK-10 renal,60.5 µM
same,GI50,OVCAR-5 ovarian,26.7 µM
same,TGI,OVCAR-5 ovarian,70.6 µM
same,GI50,CCRF-CEM leukemia,14.8 µM
same,TGI,CCRF-CEM leukemia,28.9 µM
same,GI50,UO-31 renal,19 µM
same,TGI,UO-31 renal,47.2 µM
same,GI50,HCC-2998 colon,18.4 µM
same,TGI,HCC-2998 colon,37.3 µM
same,GI50,M14 melanoma,21.9 µM
same,TGI,M14 melanoma,68 µM
same,GI50,HT29 colon,29.8 µM
same,TGI,HT29 colon,> 100 µM
same,GI50,MDA-MB-468 breast,12.4 µM
same,TGI,MDA-MB-468 breast,27.2 µM
same,GI50,MCF7 breast,14.1 µM
same,TGI,MCF7 breast,33 µM
same,GI50,PC-3 prostate,18.8 µM
same,TGI,PC-3 prostate,41 µM
same,GI50,HS 578T breast,16.1 µM
same,TGI,HS 578T breast,42.2 µM
